{
  "source": "ChEMBL document CHEMBL1201862",
  "about": "“PubChem BioAssay data set” (2004)",
  "format_in_all_cases": "functional",
  "key": {"[1]": {"molecular_target": "Multidrug resistance protein CDR1 (Candida albicans, UniProt P43071)", "sequence (P43071 whole entry, looked up)": "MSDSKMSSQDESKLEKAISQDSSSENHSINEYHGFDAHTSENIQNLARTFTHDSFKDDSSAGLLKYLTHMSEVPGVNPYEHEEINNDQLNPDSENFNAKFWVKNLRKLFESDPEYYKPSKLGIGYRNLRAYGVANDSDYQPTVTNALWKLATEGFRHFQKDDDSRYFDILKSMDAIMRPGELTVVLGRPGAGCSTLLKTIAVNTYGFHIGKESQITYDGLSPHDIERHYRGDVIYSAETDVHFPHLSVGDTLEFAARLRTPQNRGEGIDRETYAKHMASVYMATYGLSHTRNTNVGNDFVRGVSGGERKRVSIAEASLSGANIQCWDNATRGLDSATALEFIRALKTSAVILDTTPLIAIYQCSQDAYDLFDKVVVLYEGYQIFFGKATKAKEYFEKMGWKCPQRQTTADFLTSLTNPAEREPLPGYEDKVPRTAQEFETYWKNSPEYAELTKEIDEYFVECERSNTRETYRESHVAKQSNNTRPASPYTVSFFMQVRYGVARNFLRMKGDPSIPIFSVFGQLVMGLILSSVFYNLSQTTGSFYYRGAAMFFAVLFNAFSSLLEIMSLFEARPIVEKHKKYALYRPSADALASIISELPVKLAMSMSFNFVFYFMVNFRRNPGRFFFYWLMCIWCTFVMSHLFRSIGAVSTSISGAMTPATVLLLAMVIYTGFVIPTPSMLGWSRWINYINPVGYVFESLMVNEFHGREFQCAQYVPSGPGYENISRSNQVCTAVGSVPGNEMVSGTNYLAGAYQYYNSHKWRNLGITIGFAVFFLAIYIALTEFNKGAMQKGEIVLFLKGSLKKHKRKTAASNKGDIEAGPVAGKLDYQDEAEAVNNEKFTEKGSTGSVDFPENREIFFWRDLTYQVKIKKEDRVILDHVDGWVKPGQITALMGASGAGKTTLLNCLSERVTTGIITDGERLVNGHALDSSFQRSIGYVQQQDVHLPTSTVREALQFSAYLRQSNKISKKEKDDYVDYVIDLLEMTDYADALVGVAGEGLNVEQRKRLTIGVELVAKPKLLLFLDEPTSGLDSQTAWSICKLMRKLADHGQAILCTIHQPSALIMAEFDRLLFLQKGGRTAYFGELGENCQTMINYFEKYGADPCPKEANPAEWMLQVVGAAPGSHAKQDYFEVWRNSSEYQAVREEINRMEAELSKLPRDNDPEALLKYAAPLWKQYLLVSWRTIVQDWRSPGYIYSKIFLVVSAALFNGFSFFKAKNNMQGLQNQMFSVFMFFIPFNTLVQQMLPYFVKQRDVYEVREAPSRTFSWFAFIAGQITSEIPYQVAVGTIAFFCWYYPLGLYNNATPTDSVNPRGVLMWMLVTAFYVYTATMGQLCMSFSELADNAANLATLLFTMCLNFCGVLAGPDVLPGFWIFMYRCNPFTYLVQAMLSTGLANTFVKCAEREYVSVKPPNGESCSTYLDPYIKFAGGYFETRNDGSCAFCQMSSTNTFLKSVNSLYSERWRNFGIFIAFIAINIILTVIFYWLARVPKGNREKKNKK", "assay": "CaCDR1 efflux pump inhibitors in yeast, dose response, S. cerevisiae AD1-8u, singleplex, Cherry Pick1 hits (AID 588606)"}, "Melanocortin receptor 4": {"molecular_target": "Melanocortin receptor 4 (Homo sapiens, UniProt P32245)", "sequence (P32245 whole entry)": "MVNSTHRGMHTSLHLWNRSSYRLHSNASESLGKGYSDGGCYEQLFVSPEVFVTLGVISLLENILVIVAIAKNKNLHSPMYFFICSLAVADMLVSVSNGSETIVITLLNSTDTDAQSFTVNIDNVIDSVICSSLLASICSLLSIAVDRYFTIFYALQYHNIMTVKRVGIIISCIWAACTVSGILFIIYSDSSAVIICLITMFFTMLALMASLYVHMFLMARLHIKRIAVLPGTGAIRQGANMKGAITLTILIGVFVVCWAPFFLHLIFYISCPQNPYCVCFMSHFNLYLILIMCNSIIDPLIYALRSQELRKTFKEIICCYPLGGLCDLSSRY", "assay": "MC4R antagonist potency on cAMP, dose response, cell-based, TR-FRET, biased antagonists (AID 602298);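 note: antagonist potency against agonist-stimulated cAMP production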"}, "[2]": {"assay": "nonselective inhibitors of cellular cAMP signaling, dose response, counter-screen for MC4R biased antagonist project, cell-based, TR-FRET cAMP detection (AID 602305);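 note: U2OS cells stimulated with forskolin near its EC80 as the cAMP inducer; potency is for inhibition of forskolin-stimulated cAMP signaling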"}, "[3]": {"assay": "Fluorescence-based cell-based high throughput dose response assay for inhibitors of the interaction of nucleotide-binding oligomerization domain containing 2 (NOD2) and the receptor-interacting serine-threonine kinase 2 (RIPK2).", "details": "Homo sapiens"}, "Protein Wnt-3a": {"molecular_target": "Protein Wnt-3a (Mus musculus, UniProt P27467)", "assay": "Wnt3a-driven reporter signaling inhibition, dose response, selectivity assay for Gli-SUFU antagonist project, Wnt-LIGHT cells, luminescence (AID 651570);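 note: Wnt-LIGHT reporter cells stimulated with conditioned medium from Wnt3a-producing cells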", "details": "read-out: IC50_Mean"}, "[4]": {"molecular_target": "Vascular endothelial growth factor receptor 3 (Homo sapiens, UniProt P35916)"}, "[5]": {"molecular_target": "Insulin-like growth factor 1 receptor (Homo sapiens, UniProt P08069)", "sequence (P08069 31-736 limits assumed)": "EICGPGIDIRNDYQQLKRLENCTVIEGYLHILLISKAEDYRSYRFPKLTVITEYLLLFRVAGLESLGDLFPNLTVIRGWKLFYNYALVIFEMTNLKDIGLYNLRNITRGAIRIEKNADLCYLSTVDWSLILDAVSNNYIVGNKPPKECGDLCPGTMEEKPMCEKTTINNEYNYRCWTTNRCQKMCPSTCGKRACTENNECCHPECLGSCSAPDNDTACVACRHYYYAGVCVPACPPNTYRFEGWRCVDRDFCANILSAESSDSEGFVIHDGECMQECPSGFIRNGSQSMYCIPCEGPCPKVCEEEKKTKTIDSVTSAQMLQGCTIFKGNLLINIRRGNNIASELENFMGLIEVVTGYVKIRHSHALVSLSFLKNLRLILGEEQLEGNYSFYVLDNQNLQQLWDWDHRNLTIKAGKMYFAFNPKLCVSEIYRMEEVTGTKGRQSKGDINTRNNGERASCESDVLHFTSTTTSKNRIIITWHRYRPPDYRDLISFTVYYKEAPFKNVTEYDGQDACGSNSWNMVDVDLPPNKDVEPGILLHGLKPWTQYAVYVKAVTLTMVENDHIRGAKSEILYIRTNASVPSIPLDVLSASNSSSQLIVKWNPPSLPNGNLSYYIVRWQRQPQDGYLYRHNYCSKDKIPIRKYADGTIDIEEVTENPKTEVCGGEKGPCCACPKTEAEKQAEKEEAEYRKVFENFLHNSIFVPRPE", "sequence (P08069 741-1367 limits assumed)": "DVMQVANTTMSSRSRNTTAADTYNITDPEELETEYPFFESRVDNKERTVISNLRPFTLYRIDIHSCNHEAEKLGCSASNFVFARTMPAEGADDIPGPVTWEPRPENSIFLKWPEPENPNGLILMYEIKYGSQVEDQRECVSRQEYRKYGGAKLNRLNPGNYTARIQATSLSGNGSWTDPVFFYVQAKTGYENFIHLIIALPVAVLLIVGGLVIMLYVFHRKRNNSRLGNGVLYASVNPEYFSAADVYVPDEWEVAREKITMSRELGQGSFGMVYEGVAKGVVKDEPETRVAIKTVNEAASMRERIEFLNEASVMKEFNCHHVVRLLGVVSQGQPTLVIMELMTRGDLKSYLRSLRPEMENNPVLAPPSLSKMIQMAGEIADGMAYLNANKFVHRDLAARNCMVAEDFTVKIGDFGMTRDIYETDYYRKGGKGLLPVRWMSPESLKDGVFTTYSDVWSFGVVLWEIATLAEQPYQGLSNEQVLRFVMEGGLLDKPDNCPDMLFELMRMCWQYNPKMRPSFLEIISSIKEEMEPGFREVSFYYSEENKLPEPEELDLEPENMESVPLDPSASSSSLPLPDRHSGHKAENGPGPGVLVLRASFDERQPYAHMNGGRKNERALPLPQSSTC", "assay": "Navigating the Kinome. Panel member name: IGF1R"}, "[6]": {"molecular_target": "Cyclin-dependent kinase 1 (Homo sapiens, UniProt P06493)", "sequence (P06493 whole entry)": "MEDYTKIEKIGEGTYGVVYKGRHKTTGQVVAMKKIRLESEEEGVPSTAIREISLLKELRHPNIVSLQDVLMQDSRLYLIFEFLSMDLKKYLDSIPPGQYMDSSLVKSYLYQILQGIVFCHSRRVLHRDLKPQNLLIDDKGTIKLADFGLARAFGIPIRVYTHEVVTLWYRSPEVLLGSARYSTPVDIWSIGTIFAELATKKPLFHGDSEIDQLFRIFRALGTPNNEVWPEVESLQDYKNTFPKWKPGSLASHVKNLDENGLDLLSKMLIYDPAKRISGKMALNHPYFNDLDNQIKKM"}, "[7]": {"molecular_target": "T1, ATP-dependent translocase ABCB1 (Homo sapiens, UniProt P08183)", "T1 sequence (P08183 whole entry)": "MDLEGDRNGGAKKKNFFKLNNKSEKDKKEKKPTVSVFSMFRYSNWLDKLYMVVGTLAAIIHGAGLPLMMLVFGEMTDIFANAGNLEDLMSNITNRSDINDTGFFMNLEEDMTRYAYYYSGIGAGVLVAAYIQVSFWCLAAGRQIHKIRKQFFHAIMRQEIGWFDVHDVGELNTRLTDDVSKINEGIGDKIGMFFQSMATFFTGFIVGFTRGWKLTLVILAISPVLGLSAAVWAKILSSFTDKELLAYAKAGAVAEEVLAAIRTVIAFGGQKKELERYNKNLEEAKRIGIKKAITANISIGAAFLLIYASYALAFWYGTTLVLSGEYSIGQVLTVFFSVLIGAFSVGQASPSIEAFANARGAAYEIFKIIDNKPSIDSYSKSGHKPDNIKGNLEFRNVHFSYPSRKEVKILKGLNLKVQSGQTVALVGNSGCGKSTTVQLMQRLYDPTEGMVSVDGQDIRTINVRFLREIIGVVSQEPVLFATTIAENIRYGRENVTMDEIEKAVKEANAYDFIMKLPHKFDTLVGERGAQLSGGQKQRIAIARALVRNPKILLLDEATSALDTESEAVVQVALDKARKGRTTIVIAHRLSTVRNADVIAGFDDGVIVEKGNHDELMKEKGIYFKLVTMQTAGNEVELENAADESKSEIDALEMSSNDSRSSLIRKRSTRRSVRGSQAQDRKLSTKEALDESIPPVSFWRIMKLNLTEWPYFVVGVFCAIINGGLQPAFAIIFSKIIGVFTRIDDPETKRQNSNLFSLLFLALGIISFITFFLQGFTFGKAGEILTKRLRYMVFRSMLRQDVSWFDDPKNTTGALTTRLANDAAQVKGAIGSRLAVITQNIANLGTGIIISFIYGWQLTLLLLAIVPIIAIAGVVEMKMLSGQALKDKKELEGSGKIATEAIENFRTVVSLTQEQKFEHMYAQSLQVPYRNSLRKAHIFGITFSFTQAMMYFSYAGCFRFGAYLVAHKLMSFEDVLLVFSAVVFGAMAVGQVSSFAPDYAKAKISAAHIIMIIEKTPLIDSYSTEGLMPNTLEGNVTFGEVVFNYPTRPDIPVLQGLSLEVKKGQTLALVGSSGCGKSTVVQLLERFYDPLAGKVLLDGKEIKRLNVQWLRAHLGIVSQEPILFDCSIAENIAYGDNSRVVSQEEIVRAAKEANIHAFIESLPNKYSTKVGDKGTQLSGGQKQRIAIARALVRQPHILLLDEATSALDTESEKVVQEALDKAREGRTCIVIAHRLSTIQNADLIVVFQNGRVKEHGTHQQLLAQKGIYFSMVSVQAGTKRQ", "assay": "ABCB1 efflux inhibitor potency, dose response, Jurkat-DNR cells, JC-1, flow cytometry, set 2 (AID 504569);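 note: potency of pump inhibitors that raise cellular JC-1 green fluorescence up to the nicardipine level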", "details": "read-out: EC50_MICROM_"}, "[8]": {"molecular_target": "T1, ATP-dependent translocase ABCB1", "assay": "ABCG2 efflux pump inhibitor potency, dose response, Ig-MXP3 cells, JC-1, flow cytometry, set 2 (AID 504566);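 note: flow cytometry median green fluorescence of retained JC-1 dye; potency of efflux pump inhibition measured as rising substrate retention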", "details": "read-out: EC50_MICROM_"}, "[9]": {"molecular_target": "T2, Mitochondrial peptide methionine sulfoxide reductase (Bos taurus, UniProt P54149)", "T2 sequence (P54149 whole entry)": "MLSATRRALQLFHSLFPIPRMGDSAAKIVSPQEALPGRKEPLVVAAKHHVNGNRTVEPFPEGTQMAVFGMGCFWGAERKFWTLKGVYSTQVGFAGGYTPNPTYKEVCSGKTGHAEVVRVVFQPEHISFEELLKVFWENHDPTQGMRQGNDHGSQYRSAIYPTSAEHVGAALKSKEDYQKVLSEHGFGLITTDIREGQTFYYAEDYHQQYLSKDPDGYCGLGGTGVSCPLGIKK"}},
  "note": "The source made the active and inactive calls.",
  "data": [
    {"compound": "O=C(Nc1ccnc(-c2cccnc2)n1)c1cccc(Cl)c1Cl", "values": [
      {"measurement": "EC50", "setting": "[1]", "result": "0.117 µM (active)"}
    ]},
    {"compound": "CC(C)(C)C(=O)COC(=O)CNC(=O)c1ccc(Oc2ccccc2)cc1", "values": [
      {"measurement": "IC50", "setting": "Melanocortin receptor 4", "result": "> 64.6 µM (inactive)"},
      {"measurement": "IC50", "setting": "[2]", "result": "> 64.6 µM (inactive)"}
    ]},
    {"compound": "C=CC(=O)N1C/C(=C/c2ccccc2)C(=O)/C(=C\\c2ccccc2)C1", "values": [
      {"measurement": "IC50", "setting": "[3]", "result": "3.66 µM (active)"}
    ]},
    {"compound": "C=CCNC(=S)/N=c1/ccccn1Cc1ccccc1", "values": [
      {"measurement": "IC50", "setting": "Protein Wnt-3a", "result": "40.8 µM (inactive)"}
    ]},
    {"compound": "Cc1cc(C)c(C=C2C(=O)Nc3ccccc32)[nH]1", "values": [
      {"measurement": "Ki", "setting": "[4]", "result": "0.316 µM (active)"},
      {"measurement": "Ki", "setting": "[5]", "result": "> 1 µM (inactive)"},
      {"measurement": "Ki", "setting": "[6]", "result": "> 7.94 µM (inactive)"}
    ]},
    {"compound": "O=C(c1ccco1)N1CCN(c2cc(-c3ccccc3)nc3cc(-c4cccc(F)c4)nn23)CC1", "values": [
      {"measurement": "EC50", "setting": "[7]", "result": "3.4 µM (active)"},
      {"measurement": "EC50", "setting": "[8]", "result": "1.05 µM (active)"}
    ]},
    {"compound": "C/C(CCC(C)C)=N\\Nc1ccc(S(N)(=O)=O)cc1[N+](=O)[O-]", "values": [
      {"measurement": "IC50", "setting": "[9]", "result": "155 µM (inactive)"}
    ]}
  ]
}
